According to US20020137929A1, “1 - (3-heterocyclylphenyl) isothiourea, -isourea, -guanidine and -amidine herbicidal agents” (Intellectual Property Department, BASF Aktiengesellschaft, priority 1998, published 2002):

Legend:
ABUTH (Velvetleaf) = assay: Postemergence herbicidal evaluation; format: in vivo, Abutilon theophrasti; conditions: for herbicidal rating ABUTH: postemergence
In short: (§1)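 Rate range approx. 0.0156–0.500 kg/ha. Foliar application at 40 psi to ~2-week seedlings; surfactant 0.5% TWEEN 20 in 50/50 acetone/water. Evaluation 4–5 wk post-treatment by 0–9 visual injury score, means of replicate tests.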

[1] = system: CHEAL (Lambsquarters, Common); assay: Postemergence herbicidal evaluation; format: in vivo, Chenopodium album; conditions: for herbicidal rating CHEAL: postemergence
In short: as §1

SETVI (Foxtail, Green) [2] = assay: Postemergence herbicidal evaluation; format: in vivo, Setaria viridis; conditions: for herbicidal rating SETVI: postemergence
In short: as §1

[3] = system: GLXMAW (Soybean, Williams); assay: Postemergence herbicidal evaluation; format: in vivo, Glycine max, (L.) Merr. cv Williams; conditions: for herbicidal rating GLXMAW: postemergence
In short: as §1

ORYSAT (Rice, Tebonnet) = assay: Postemergence herbicidal evaluation; format: in vivo, Oryza sativa, (L.) Tebonnet; conditions: for herbicidal rating ORYSAT: postemergence
In short: as §1

[4] = system: TRZAWR (Wheat, Winter, cv Riband); assay: Postemergence herbicidal evaluation; format: in vivo, Triticum aestivum; conditions: for herbicidal rating TRZAWR: postemergence
In short: as §1

ZEAMX (Corn, Field) = assay: Postemergence herbicidal evaluation; format: in vivo, Zea mays; conditions: for herbicidal rating ZEAMX: postemergence
In short: as §1

AMBEL (Ragweed, Common) = assay: Preemergence herbicidal evaluation; format: in vivo, Ambrosia artemisifolia; conditions: rated 4-5 weeks after treatment
In short: (§2)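 Seeds were planted in potting soil in cups, then sprayed preemergence with the test compound in aqueous acetone at about 0.0156 to 0.500 kg per hectare. Cups were kept under greenhouse conditions and visually rated 4–5 weeks after treatment on a 0–9 scale against an untreated control.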

GALAP (Galium) = assay: Preemergence herbicidal evaluation; format: in vivo, Galium aparine; conditions: rated 4-5 weeks after treatment
In short: as §2

SETVI (Foxtail, Green) [5] = assay: Preemergence herbicidal evaluation; format: in vivo, Setaria viridis; conditions: rated 4-5 weeks after treatment
In short: as §2

CYPIR (Rice Flatsedge) = assay: Preemergence weed control under flooded paddy conditions; format: in vivo, Cyperus iria; conditions: rated 3-4 weeks after treatment
In short: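 Silt loam, seeds in top 0.5 cm; flood held 1.5-3 cm; test cpd as acetone/water 50/50 into flood water, ~0.0313-0.500 kg/ha a.i.; greenhouse 3-4 wk; visual 0-9 score vs control.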

CCOC(=O)CN1C(=O)C(SC)SC1=Nc1cc(-n2c(=O)cc(C(F)(F)F)n(C)c2=O)c(F)cc1Cl (stereo not shown) [Compound 125, Ethyl 2-{{2-chloro-5-[3,6-dihydro-3-methyl-2,6-dioxo-4-(trifluoromethyl)-1(2H)-pyrimidinyl]-4-fluorophenyl}imino}-5-(methylthio)-4-oxo-3-thiazolidineacetate]
6.7: herbicidal rating ZEAMX (ZEAMX (Corn, Field); rate 0.0156 kg/ha)
4.0: herbicidal rating ORYSAT (ORYSAT (Rice, Tebonnet); rate 0.0313 kg/ha)
3.0: herbicidal rating CHEAL ([1]; rate 0.0156 kg/ha) | herbicidal effect rating, CYPIR (CYPIR (Rice Flatsedge); 0.0313 kg/ha)
3.7: herbicidal rating ORYSAT (ORYSAT (Rice, Tebonnet); rate 0.0625 kg/ha)
8.0: herbicidal rating GLXMAW ([3]; rate 0.0313 kg/ha) | herbicidal rating ZEAMX (ZEAMX (Corn, Field); rate 0.0625 kg/ha)
4.3: herbicidal rating TRZAWR ([4]; rate 0.0156 kg/ha)
7.0: Preemergence herbicidal rating GALAP (GALAP (Galium); rate 0.2500 kg/ha) | herbicidal effect rating, CYPIR (CYPIR (Rice Flatsedge); 0.1250 kg/ha)
1.0: Preemergence herbicidal rating GALAP (GALAP (Galium); rate 0.1250 kg/ha)
0.0: Preemergence herbicidal rating AMBEL (AMBEL (Ragweed, Common); rate 0.0156 kg/ha) | Preemergence herbicidal rating GALAP (GALAP (Galium); rate 0.0156 kg/ha) | Preemergence herbicidal rating GALAP (GALAP (Galium); rate 0.0313 kg/ha) | Preemergence herbicidal rating GALAP (GALAP (Galium); rate 0.0625 kg/ha) | Preemergence herbicidal rating SETVI (SETVI (Foxtail, Green) [5]; rate 0.0156 kg/ha) | Preemergence herbicidal rating SETVI (SETVI (Foxtail, Green) [5]; rate 0.0313 kg/ha)
9.0: herbicidal rating ABUTH (ABUTH (Velvetleaf); rate 0.0156 kg/ha) | herbicidal rating ABUTH (ABUTH (Velvetleaf); rate 0.0313 kg/ha) | herbicidal rating ABUTH (ABUTH (Velvetleaf); rate 0.0625 kg/ha) | herbicidal rating CHEAL ([1]; rate 0.0313 kg/ha) | herbicidal rating CHEAL ([1]; rate 0.0625 kg/ha) | Preemergence herbicidal rating AMBEL (AMBEL (Ragweed, Common); rate 0.0625 kg/ha) | Preemergence herbicidal rating AMBEL (AMBEL (Ragweed, Common); rate 0.1250 kg/ha) | Preemergence herbicidal rating AMBEL (AMBEL (Ragweed, Common); rate 0.2500 kg/ha) | Preemergence herbicidal rating AMBEL (AMBEL (Ragweed, Common); rate 0.5000 kg/ha) | Preemergence herbicidal rating GALAP (GALAP (Galium); rate 0.5000 kg/ha) | Preemergence herbicidal rating SETVI (SETVI (Foxtail, Green) [5]; rate 0.1250 kg/ha) | Preemergence herbicidal rating SETVI (SETVI (Foxtail, Green) [5]; rate 0.2500 kg/ha) | Preemergence herbicidal rating SETVI (SETVI (Foxtail, Green) [5]; rate 0.5000 kg/ha) | herbicidal effect rating, CYPIR (CYPIR (Rice Flatsedge); 0.2500 kg/ha)
7.3: herbicidal rating GLXMAW ([3]; rate 0.0156 kg/ha) | herbicidal rating ZEAMX (ZEAMX (Corn, Field); rate 0.0313 kg/ha)
3.3: herbicidal rating ORYSAT (ORYSAT (Rice, Tebonnet); rate 0.0156 kg/ha)
2.0: herbicidal rating SETVI (SETVI (Foxtail, Green) [2]; rate 0.0156 kg/ha)
5.0: herbicidal rating SETVI (SETVI (Foxtail, Green) [2]; rate 0.0313 kg/ha) | herbicidal rating SETVI (SETVI (Foxtail, Green) [2]; rate 0.0625 kg/ha) | herbicidal rating TRZAWR ([4]; rate 0.0313 kg/ha) | herbicidal rating TRZAWR ([4]; rate 0.0625 kg/ha) | Preemergence herbicidal rating SETVI (SETVI (Foxtail, Green) [5]; rate 0.0625 kg/ha)
8.7: herbicidal rating GLXMAW ([3]; rate 0.0625 kg/ha)
6.0: Preemergence herbicidal rating AMBEL (AMBEL (Ragweed, Common); rate 0.0313 kg/ha) | herbicidal effect rating, CYPIR (CYPIR (Rice Flatsedge); 0.0625 kg/ha)

CCCN1C(=O)CSC1=Nc1cc(-n2c(=O)cc(C(F)(F)F)n(C)c2=O)c(F)cc1Cl [Compound 171, 3-{4-Chloro-2-fluoro-5-[(4-oxo-3-propyl-2-thiazolidinylidene)amino]phenyl}-1-methyl-6-(trifluoromethyl)-2,4 (1H, 3H)-pyrimidinedione]
5.5: Postemergence herbicidal rating GLXMAW ([3]; Rate 0.0156 kg/ha)
4.0: Postemergence herbicidal rating ORYSAT (ORYSAT (Rice, Tebonnet); Rate 0.0313 kg/ha) | Postemergence herbicidal rating TRZAWR ([4]; Rate 0.0156 kg/ha) | Preemergence herbicidal rating AMBEL (AMBEL (Ragweed, Common); 0.0313 kg/ha)
0.0: Preemergence herbicidal rating GALAP (GALAP (Galium); 0.0156 kg/ha) | Preemergence herbicidal rating GALAP (GALAP (Galium); 0.0313 kg/ha)
5.0: herbicidal rating ORYSAT (ORYSAT (Rice, Tebonnet); rate 0.0625 kg/ha) | Postemergence herbicidal rating TRZAWR ([4]; Rate 0.0313 kg/ha) | Postemergence herbicidal rating ZEAMX (ZEAMX (Corn, Field); Rate 0.0156 kg/ha) | Preemergence herbicidal rating GALAP (GALAP (Galium); 0.1250 kg/ha)
6.5: Postemergence herbicidal rating GLXMAW ([3]; Rate 0.0313 kg/ha) | Postemergence herbicidal rating ZEAMX (ZEAMX (Corn, Field); Rate 0.0313 kg/ha)
6.0: herbicidal rating TRZAWR ([4]; rate 0.0625 kg/ha) | Preemergence herbicidal rating GALAP (GALAP (Galium); 0.2500 kg/ha)
3.5: Postemergence herbicidal rating ORYSAT (ORYSAT (Rice, Tebonnet); Rate 0.0156 kg/ha)
7.0: Postemergence herbicidal rating CHEAL ([1]; Rate 0.0156 kg/ha) | Postemergence herbicidal rating SETVI (SETVI (Foxtail, Green) [2]; Rate 0.0156 kg/ha) | Postemergence herbicidal rating SETVI (SETVI (Foxtail, Green) [2]; Rate 0.0313 kg/ha) | herbicidal rating GLXMAW ([3]; rate 0.0625 kg/ha) | herbicidal rating ZEAMX (ZEAMX (Corn, Field); rate 0.0625 kg/ha) | Preemergence herbicidal rating SETVI (SETVI (Foxtail, Green) [5]; 0.0156 kg/ha)
9.0: Postemergence herbicidal rating ABUTH (ABUTH (Velvetleaf); Rate 0.0156 kg/ha) | Postemergence herbicidal rating ABUTH (ABUTH (Velvetleaf); Rate 0.0313 kg/ha) | herbicidal rating ABUTH (ABUTH (Velvetleaf); rate 0.0625 kg/ha) | Postemergence herbicidal rating CHEAL ([1]; Rate 0.0313 kg/ha) | herbicidal rating CHEAL ([1]; rate 0.0625 kg/ha) | herbicidal rating SETVI (SETVI (Foxtail, Green) [2]; rate 0.0625 kg/ha) | Preemergence herbicidal rating AMBEL (AMBEL (Ragweed, Common); 0.0625 kg/ha) | Preemergence herbicidal rating AMBEL (AMBEL (Ragweed, Common); 0.1250 kg/ha) | Preemergence herbicidal rating AMBEL (AMBEL (Ragweed, Common); 0.2500 kg/ha) | Preemergence herbicidal rating SETVI (SETVI (Foxtail, Green) [5]; 0.0313 kg/ha) | Preemergence herbicidal rating SETVI (SETVI (Foxtail, Green) [5]; 0.0625 kg/ha) | Preemergence herbicidal rating SETVI (SETVI (Foxtail, Green) [5]; 0.1250 kg/ha) | Preemergence herbicidal rating SETVI (SETVI (Foxtail, Green) [5]; 0.2500 kg/ha) | herbicidal effect rating, CYPIR (CYPIR (Rice Flatsedge); 0.0625 kg/ha) | herbicidal effect rating, CYPIR (CYPIR (Rice Flatsedge); 0.1250 kg/ha) | herbicidal effect rating, CYPIR (CYPIR (Rice Flatsedge); 0.2500 kg/ha)
3.0: Preemergence herbicidal rating AMBEL (AMBEL (Ragweed, Common); 0.0156 kg/ha) | herbicidal effect rating, CYPIR (CYPIR (Rice Flatsedge); 0.0313 kg/ha)
